Marks after values point to notes of the source that are not given here.
What was measured:
[1] = tested on: galectin-3 (Gal-3); assay: Hepatic galectin-3 (Gal-3) levels by IHC in ob/ob AMLN mice; assay type: in vivo, mouse; conditions: 8 weeks, Compound A 45, 90, 135 mg/kg
Method: (§1) Obese diet-induced B6.V-Lepob/Jrj mice (ob/ob) are consistently fibrosis (liver) prone when cholesterol (2%), 40% fat (containing 18% trans-fatty acids) and 20% fructose are added to a high-caloric diet (i.e., AMLN high-fat diet). ob/ob mice on AMLN diet (termed ‘ob/ob AMLN mice’) develop steatohepatitis and fibrosis within a shorter timeframe ([…]) compared with wild-type C57BL/6 mice (AMLN mice) fed the same diet. ob/ob AMLN mice provide an obese diet-induced model of NASH that also allows the study of effects on glycemic control. Development of NASH in the ob/ob AMLN model is confirmed by biopsy.
In Biological Examples 10, 13-14, and 16-18, studies were performed in male ob/ob mice (5 weeks old) fed an AMLN high-fat diet for 18 weeks, then randomized into 6 groups (n=10 per group) to receive either Compound A (at 3 different daily doses, 45 mg/kg, 90 mg/kg or 135 mg/kg) via diet, 30 mg/kg bw per day obeticholic acid (OCA) via diet, or no treatment (vehicle) for a further 8 weeks. Assessment of NASH related parameters and fibrosis was made at study end by quantitative immune histochemistry (IHC) measurements.
To assess the effects of 8 weeks treatment with either Compound A (45 mg/kg, 90 mg/kg, or 135 mg/kg) or OCA (30 mg/kg) on hepatic inflammation in ob/ob AMLN mice, IHC was performed to assess galectin-3 (Gal-3) levels.

[2] = tested on: LX-2 human hepatic stellate cells; assay: LX-2 cell viability by MTS assay; assay type: cell-based; conditions: LX-2 cells; 24 hours; Compound A 10-75 μM, OA 75 μM
Method: Stellate cells are resident liver cells and the major cell type involved in the initiation and progression of liver fibrosis. In Biological Example 20, in vitro studies were performed on cultured human stellate cells (LX-2 cells) to assess direct effects of Compound A on these cells. Cells were treated for 24 hours with Compound A (10 μM, 25 μM, 50 μM, or 75 μM) or oleic acid (OA; 75 μM) and bromodeoxyuridine (BrdU) incorporation was assessed to determine effects on proliferation. A MTS (3-(4,5-dimethylthiazol-2-yl)-5-(3-carboxymethoxyphenyl)-2-(4-sulfophenyl)-2H-tetrazolium) assay was used to determine cell viability.
Cell proliferation of LX-2 human hepatic stellate cells treated for 24 hours with 10-75 μM of Compound A or oleic acid (OA) (75 μM) was assessed by BrdU incorporation. The results are normalised mean values ±S.E.M. of 5 independent experiments for icosabutate and 2 independent experiments for OA. […] The reduction in proliferation by Compound A was 25-34% at 24 hours whereas OA had no effect. The comparisons were made by one-way ANOVA with Dunnett's correction for multiple comparisons.

[3] = tested on: STAM (model) mice; assay: Fibrosis area by Sirius Red staining, STAM model; assay type: in vivo, mouse; conditions: Sirius Red positive area, 6 weeks treatment, Compound A 37 mg/kg/day oral gavage
Text: In Biological Example 8, pathogen-free 15-day-pregnant C57BL/6 mice were obtained from Charles River Laboratories in Japan Inc. (Kanagawa, Japan). NASH was established in male mice by a single subcutaneous injection of streptozotocin (STZ) (Sigma, USA) after birth and feeding with a high fat diet (HFD; CLEA) Japan, Japan) ad libitum after 4 weeks of age (day 28±2). Mice were randomised into 3 groups of 8 mice at 6 weeks of age the day before the start of treatment: vehicle (saline), Compound A and telmisartan (positive control). Treatment with Compound A at a dose of 37 mg/kg bw per day via oral gavage in conjunction with a high-fat diet was given for 6 weeks before sacrifice. NAFLD activity score (NAS) was calculated according to standardised criteria and fibrosis area was assessed via Sirius Red staining.

[4] = tested on: CETP; assay: CETP expression in APOE*3.CETP mice; assay type: in vivo, mouse; conditions: Compound A
[5] = tested on: canonical genes regulating hepatic fibrogenesis; assay: Hepatic fibrogenic gene expression by RNA sequencing in ob/ob AMLN mice; assay type: in vivo, mouse; conditions: 4 weeks, Compound A 112 mg/kg, pioglitazone 30 mg/kg
Method: as §1
In Biological Examples 10-12, 15, and 19, studies were performed in male ob/ob mice (5 weeks old) fed an AMLN high-fat diet for 15 weeks, then randomized into 3 groups (n=10 per group) to receive either 112 mg/kg bw per day of Compound A via diet, 30 mg/kg bw per day pioglitazone via diet or no treatment (vehicle) for a further 4 weeks. An oral glucose tolerance test (OGTT) was performed at week 3. Hepatic fibrosis was assessed via measurements of hepatic fibrogenic/fibrolytic gene expression by RNA sequencing at 4 weeks.

[6] = tested on: APOE*3Leiden.CETP mice; assay: Hepatocellular hypertrophy grading in APOE*3Leiden.CETP double transgenic mice; assay type: in vivo, mouse; conditions: APOE*3Leiden.CETP mice on high fat/cholesterol diet; 0.3 mmol/kg bw per day by gavage; 20 weeks
Text: The APOE*3Leiden.CETP double transgenic mouse expresses a variant of the human apolipoprotein E3 (APOE3), the APOE*3Leiden, in addition to the human apolipoprotein C1 (APOC1) and CETP. […] By increasing the cholesterol content of the diet in this model, all the characteristics of human NASH develop.
In one study (using 1% cholesterol w/w), after a 3 weeks run-in period low-responder mice (20% of total) were removed from the study and the remaining mice were sub-divided into 4 groups of 12 mice each (+5 in the control group), matched for plasma cholesterol, triglycerides, blood glucose, body weight and age (t=0) and treatment was started. The mice received a daily gavage between 07hr00 and 10hr00 with either Compound A at 0.3 mmol/kg bw per day, the comparison compound Compound N (0.3 mmol/kg bw per day), rosiglitazone (13 mg/kg bw per day) or control (corn oil). After 20 weeks of treatment mice were sacrificed by CO2 asphyxiation, the liver was collected and the level of hepatocellular hypertrophy was graded.

SMILES: CC/C=C\C/C=C\C/C=C\C/C=C\C/C=C\CCCCOC(CC)C(=O)O (stereo not shown) [Compound A, 2-((5Z,8Z,11Z,14Z,17Z)-icosa-5,8,11,14,17-pentaenyloxy)butanoic acid]
- Gal-3 expression level, percentage of area [1]: dose responsive reduction
- Gal-3 expression level, total content ([1]; OCA 30 mg/kg): dose responsive reduction
- cell viability (MTS assay) [2]: neither Compound A nor OA showed a significant effect
- Fibrosis area (%) [3]: 0.79%
- CETP expression [4]: significantly reduce CETP expression
- hepatic HSP47 expression [5]: significantly reduced
- hepatic PDGF-β expression [5]: significantly reduced
- hepatic PDGFR-β expression [5]: significantly reduced
- hepatic col1A1 expression [5]: significantly reduced
- hepatic col3A1 expression [5]: significantly reduced
- hepatic col4A1 expression [5]: significantly reduced
- Decrease in hypertrophy vs. control (%) [6]: 83* %
- Hepatocellular hypertrophy [6]: 8.9 ± 5.9

From patent US12440466B2, “Fatty acid derivatives for treating non-alcoholic steatohepatitis” (BASF AS, priority 2017, dated 2025)
